# How the values were obtained:
# Test in all cases: KinomeScan kinase panel
# Type in all cases: binding
# [1] = target: T1, MYLK2 (Homo sapiens, UniProt Q9H1R3)
# T1 construct: purchased DiscoveRx Corporation (KinomeScan)
# Outline: (§1)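 Broad-panel profiling: KinomeScan, 442 wild-type and mutant kinases, each exposed to compound at 1000 nM.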
# [2] = target: T2, EGFR(T790M) (Homo sapiens, UniProt P00533, T790M)
# T2 construct: purchased DiscoveRx Corporation (KinomeScan)
# Outline: as §1
# [3] = target: T3, EPHA6 (Homo sapiens, UniProt Q9UF33)
# T3 construct: purchased DiscoveRx Corporation (KinomeScan)
# Outline: as §1
# [4] = target: T4, PLK3 (Homo sapiens, UniProt Q9H4B4)
# T4 construct: purchased DiscoveRx Corporation (KinomeScan)
# Outline: as §1
# [5] = target: T5, SgK110 (Homo sapiens, UniProt P0C264)
# T5 construct: purchased DiscoveRx Corporation (KinomeScan)
# T5 sequence (P0C264 whole entry): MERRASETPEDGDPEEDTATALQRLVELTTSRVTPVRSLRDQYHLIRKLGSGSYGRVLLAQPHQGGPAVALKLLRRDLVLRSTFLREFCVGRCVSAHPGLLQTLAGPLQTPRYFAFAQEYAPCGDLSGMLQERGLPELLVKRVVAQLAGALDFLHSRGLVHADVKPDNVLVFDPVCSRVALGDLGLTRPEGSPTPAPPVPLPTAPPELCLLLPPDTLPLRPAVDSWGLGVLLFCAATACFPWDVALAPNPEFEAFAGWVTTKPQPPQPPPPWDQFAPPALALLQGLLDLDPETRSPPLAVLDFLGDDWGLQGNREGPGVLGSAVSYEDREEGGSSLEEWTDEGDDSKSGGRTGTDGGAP
# Outline: as §1
# [6] = target: T6, MET(M1250T) (Homo sapiens, UniProt P08581, M1250T)
# T6 construct: purchased DiscoveRx Corporation (KinomeScan)
# Outline: as §1
# [7] = target: T7, MARK2 (Homo sapiens, UniProt Q7KZI7)
# T7 construct: purchased DiscoveRx Corporation (KinomeScan)
# Outline: as §1
# [8] = target: T8, PKMYT1 (Homo sapiens, UniProt Q99640)
# T8 construct: purchased DiscoveRx Corporation (KinomeScan)
# Outline: as §1
# [9] = target: T9, AMPK-alpha2 (Homo sapiens, UniProt P54646)
# T9 construct: purchased DiscoveRx Corporation (KinomeScan)
# Outline: as §1
# [10] = target: T10, CDC2L2 (Homo sapiens, UniProt Q9UQ88)
# T10 construct: purchased DiscoveRx Corporation (KinomeScan)
# T10 sequence (Q9UQ88 whole entry): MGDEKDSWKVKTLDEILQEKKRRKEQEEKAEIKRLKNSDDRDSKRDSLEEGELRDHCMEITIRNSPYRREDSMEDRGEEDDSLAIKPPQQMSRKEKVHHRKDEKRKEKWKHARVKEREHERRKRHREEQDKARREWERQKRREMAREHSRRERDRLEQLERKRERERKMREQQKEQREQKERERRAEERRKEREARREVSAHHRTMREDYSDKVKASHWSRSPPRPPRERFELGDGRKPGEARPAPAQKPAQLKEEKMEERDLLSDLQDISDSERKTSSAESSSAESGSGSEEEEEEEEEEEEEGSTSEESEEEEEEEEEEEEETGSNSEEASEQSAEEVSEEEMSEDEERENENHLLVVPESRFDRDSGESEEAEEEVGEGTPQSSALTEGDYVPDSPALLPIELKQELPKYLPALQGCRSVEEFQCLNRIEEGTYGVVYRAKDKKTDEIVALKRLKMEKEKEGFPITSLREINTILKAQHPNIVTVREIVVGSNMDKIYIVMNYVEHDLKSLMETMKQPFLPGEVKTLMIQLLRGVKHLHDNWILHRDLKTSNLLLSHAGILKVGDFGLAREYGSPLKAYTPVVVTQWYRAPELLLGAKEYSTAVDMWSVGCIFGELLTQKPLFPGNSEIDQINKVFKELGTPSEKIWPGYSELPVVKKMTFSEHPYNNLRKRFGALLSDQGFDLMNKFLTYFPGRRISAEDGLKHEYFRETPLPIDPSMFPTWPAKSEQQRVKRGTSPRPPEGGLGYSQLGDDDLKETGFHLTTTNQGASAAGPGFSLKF
# Outline: as §1
# [11] = target: T11, NEK11 (Homo sapiens, UniProt Q8NG66)
# T11 construct: purchased DiscoveRx Corporation (KinomeScan)
# Outline: as §1
# [12] = target: T12, EGFR(G719C) (Homo sapiens, UniProt P00533, G719C)
# T12 construct: purchased DiscoveRx Corporation (KinomeScan)
# Outline: as §1
# [13] = target: T13, PLK2 (Homo sapiens, UniProt Q9NYY3)
# T13 construct: purchased DiscoveRx Corporation (KinomeScan)
# Outline: as §1
# [14] = target: T14, IKK-alpha (Homo sapiens, UniProt O15111)
# T14 construct: purchased DiscoveRx Corporation (KinomeScan)
# T14 sequence (O15111 whole entry): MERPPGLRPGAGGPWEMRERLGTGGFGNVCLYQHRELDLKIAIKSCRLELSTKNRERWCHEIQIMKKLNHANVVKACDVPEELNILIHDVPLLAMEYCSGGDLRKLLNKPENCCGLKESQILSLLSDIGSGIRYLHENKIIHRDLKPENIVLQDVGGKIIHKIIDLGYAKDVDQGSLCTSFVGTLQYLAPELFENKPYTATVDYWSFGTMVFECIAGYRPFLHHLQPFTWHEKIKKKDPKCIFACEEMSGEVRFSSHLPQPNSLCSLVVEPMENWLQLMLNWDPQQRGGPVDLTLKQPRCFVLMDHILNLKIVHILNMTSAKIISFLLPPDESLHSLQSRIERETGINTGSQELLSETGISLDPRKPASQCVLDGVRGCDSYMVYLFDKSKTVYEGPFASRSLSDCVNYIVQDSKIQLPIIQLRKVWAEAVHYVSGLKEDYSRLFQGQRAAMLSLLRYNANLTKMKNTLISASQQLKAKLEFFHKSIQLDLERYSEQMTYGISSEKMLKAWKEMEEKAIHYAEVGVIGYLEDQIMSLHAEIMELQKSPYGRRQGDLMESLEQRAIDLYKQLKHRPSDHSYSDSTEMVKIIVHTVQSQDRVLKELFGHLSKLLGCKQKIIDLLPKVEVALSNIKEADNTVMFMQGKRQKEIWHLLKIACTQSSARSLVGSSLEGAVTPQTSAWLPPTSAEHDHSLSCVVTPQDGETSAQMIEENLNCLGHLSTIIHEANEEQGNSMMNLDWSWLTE
# Outline: as §1
# [15] = target: T15, KIT(V559D, V654A) (Homo sapiens, UniProt P10721, V559D/V654A)
# T15 construct: purchased DiscoveRx Corporation (KinomeScan)
# Outline: as §1
# [16] = target: T16, CTK (Homo sapiens, UniProt P42679)
# T16 construct: purchased DiscoveRx Corporation (KinomeScan)
# T16 sequence (P42679 whole entry): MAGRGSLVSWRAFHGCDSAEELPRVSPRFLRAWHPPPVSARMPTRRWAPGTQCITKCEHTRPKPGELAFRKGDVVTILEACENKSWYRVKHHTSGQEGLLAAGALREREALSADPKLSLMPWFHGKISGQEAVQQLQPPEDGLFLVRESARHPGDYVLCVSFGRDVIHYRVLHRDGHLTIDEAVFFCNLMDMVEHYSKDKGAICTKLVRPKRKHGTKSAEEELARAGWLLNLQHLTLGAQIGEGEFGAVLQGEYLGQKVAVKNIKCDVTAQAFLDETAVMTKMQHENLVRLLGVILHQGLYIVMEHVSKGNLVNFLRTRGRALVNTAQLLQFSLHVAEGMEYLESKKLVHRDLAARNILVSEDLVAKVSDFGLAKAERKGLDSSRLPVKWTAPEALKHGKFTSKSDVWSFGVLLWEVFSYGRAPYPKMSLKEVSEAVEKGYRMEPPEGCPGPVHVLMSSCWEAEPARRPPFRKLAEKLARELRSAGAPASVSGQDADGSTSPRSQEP
# Outline: as §1
# [17] = target: T17, YANK3 (Homo sapiens, UniProt Q86UX6)
# T17 construct: purchased DiscoveRx Corporation (KinomeScan service)
# T17 sequence (Q86UX6 whole entry): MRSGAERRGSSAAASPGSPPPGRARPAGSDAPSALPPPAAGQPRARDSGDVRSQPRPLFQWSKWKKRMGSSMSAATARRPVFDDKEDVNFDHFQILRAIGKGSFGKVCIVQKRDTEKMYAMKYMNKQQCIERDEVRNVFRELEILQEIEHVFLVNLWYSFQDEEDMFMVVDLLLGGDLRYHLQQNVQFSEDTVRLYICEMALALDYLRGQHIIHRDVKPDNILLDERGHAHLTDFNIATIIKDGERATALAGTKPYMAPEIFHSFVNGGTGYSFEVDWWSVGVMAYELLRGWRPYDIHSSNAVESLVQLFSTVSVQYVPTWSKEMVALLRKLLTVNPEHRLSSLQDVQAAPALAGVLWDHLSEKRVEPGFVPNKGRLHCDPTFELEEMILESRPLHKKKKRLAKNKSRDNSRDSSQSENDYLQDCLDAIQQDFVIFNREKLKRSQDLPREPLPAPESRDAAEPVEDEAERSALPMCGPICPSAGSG
# Outline: as §1
# [18] = target: T18, YES (Homo sapiens, UniProt P07947)
# T18 construct: purchased DiscoveRx Corporation (KinomeScan service)
# T18 sequence (P07947 whole entry): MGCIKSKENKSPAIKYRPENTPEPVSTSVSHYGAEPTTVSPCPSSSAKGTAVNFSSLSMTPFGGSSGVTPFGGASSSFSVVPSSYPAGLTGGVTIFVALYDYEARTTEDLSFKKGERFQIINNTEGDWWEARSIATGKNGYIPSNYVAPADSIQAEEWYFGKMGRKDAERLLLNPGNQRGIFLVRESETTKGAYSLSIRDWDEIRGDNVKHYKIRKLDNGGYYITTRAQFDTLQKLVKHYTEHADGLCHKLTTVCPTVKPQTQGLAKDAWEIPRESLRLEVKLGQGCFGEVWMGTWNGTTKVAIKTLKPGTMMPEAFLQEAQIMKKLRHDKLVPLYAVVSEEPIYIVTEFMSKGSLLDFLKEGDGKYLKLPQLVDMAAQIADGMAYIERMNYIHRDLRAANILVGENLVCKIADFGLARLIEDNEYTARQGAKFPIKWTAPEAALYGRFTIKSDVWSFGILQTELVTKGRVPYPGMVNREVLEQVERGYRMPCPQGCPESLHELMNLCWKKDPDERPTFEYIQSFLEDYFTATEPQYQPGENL
# Outline: as §1
# [19] = target: T19, RPS6KA5(kin.Dom.2-C-termimal) (Homo sapiens, UniProt O75582)
# T19 construct: kin.Dom.2; purchased DiscoveRx Corporation
# Outline: as §1
# [20] = target: T20, ABL1(E255K)-phosphorylated (Homo sapiens, UniProt P00519, E255K)
# T20 construct: purchased DiscoveRx Corporation (KinomeScan)
# Outline: as §1
# [21] = target: T21, IRAK4 (Homo sapiens, UniProt Q9NWZ3)
# T21 construct: purchased DiscoveRx Corporation (KinomeScan)
# T21 sequence (Q9NWZ3 whole entry): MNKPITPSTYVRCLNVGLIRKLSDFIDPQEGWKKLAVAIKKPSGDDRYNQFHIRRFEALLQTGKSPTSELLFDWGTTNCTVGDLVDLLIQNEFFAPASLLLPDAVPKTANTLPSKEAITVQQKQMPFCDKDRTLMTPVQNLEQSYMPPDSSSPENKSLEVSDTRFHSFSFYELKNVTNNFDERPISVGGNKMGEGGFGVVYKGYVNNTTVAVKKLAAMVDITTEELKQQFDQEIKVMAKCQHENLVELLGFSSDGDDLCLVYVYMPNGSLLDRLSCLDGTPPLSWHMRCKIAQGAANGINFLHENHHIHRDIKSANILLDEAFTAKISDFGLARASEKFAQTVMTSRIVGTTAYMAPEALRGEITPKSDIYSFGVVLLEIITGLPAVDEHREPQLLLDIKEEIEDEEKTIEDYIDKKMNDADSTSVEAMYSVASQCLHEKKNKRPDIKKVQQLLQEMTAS
# Outline: as §1
# [22] = target: T22, TSSK1B (Homo sapiens, UniProt Q9BXA7)
# T22 construct: purchased DiscoveRx Corporation (KinomeScan)
# Outline: as §1
# [23] = target: T23, MAP3K15 (Homo sapiens, UniProt Q6ZN16)
# T23 construct: purchased DiscoveRx Corporation (KinomeScan)
# Outline: as §1
# [24] = target: T24, PIK3CA(E542K) (Homo sapiens, UniProt P42336, E542K)
# T24 construct: purchased DiscoveRx Corporation (KinomeScan)
# Outline: as §1
# [25] = target: T25, PRKD1 (Homo sapiens, UniProt Q15139)
# T25 construct: purchased DiscoveRx Corporation (KinomeScan)
# Outline: as §1
# [26] = target: T26, EGFR(S752-1759del) (Homo sapiens, UniProt P00533, DEL752-759)
# T26 construct: purchased DiscoveRx Corporation (KinomeScan)
# Outline: as §1
# [27] = target: T27, NEK7 (Homo sapiens, UniProt Q8TDX7)
# T27 construct: purchased DiscoveRx Corporation (KinomeScan panel)
# Outline: as §1
# [28] = target: T28, NEK3 (Homo sapiens, UniProt P51956)
# T28 construct: purchased DiscoveRx Corporation (KinomeScan panel)
# T28 sequence (P51956 whole entry): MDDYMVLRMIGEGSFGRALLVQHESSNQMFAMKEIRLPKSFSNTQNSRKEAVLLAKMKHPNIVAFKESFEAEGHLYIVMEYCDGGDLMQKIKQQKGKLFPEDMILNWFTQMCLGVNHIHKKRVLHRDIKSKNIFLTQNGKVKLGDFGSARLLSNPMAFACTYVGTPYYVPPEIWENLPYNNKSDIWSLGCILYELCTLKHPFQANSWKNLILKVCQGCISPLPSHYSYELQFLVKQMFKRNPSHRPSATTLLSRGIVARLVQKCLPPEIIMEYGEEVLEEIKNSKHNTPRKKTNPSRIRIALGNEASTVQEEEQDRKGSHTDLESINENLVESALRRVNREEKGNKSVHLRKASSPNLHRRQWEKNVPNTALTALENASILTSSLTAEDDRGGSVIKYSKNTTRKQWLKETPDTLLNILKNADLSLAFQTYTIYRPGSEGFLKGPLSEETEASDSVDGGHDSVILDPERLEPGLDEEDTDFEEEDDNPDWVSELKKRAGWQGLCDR
# Outline: as §1
# [29] = target: T29, WEE1 (Homo sapiens, UniProt P30291)
# T29 construct: purchased DiscoveRx Corporation (KinomeScan service)
# Outline: as §1
# [30] = target: T30, YSK4 (Homo sapiens, UniProt Q56UN5)
# T30 construct: purchased DiscoveRx Corporation (KinomeScan service)
# Outline: as §1
# [31] = target: T31, LZK (Homo sapiens, UniProt O43283)
# T31 construct: purchased DiscoveRx Corporation (KinomeScan)
# Outline: as §1
# [32] = target: T32, CSR1 (Homo sapiens, UniProt O95747)
# T32 construct: purchased DiscoveRx Corporation (KinomeScan panel)
# T32 sequence (O95747 whole entry): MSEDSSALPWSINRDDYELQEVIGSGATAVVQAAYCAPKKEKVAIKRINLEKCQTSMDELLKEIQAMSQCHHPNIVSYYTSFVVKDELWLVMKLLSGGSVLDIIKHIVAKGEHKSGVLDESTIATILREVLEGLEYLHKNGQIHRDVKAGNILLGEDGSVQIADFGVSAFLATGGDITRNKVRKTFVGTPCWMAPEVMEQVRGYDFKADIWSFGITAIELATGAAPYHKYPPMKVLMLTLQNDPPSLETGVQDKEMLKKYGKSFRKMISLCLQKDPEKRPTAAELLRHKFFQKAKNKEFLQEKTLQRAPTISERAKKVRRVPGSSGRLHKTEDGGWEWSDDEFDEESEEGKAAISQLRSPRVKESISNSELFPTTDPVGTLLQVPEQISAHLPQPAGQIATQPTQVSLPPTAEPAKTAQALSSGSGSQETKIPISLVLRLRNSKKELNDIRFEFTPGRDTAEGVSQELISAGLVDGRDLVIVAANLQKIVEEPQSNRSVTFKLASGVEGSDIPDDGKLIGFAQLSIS
# Outline: as §1
# [33] = target: T33, FLT3(D835H) (Homo sapiens, UniProt P36888, D835H)
# T33 construct: purchased DiscoveRx Corporation (KinomeScan)
# Outline: as §1
# [34] = target: T34, PYK2 (Homo sapiens, UniProt Q14289)
# T34 construct: purchased DiscoveRx Corporation
# Outline: as §1
compound,measurement,setting,value
"CCOP(=O)(CN1CCC(COc2cc3nccc(Oc4ccc(NC(=O)C5(C(=O)Nc6ccc(F)cc6)CC5)cc4F)c3cc2OC)CC1)OCC [Example 10, N1-[4-[[7-[[1-(diethoxyphosphorylmethyl)-4-piperidinyl]methoxyl]-6-methoxyl-4-quinolyl]oxyl]-3-fluorophenyl]-N1′-(4-fluorophenyl)cyclopropane-1,1-dicarboxamide]",% Ctrl@1000 nM,[1],100 % Ctrl
same,% Ctrl@1000 nM,[2],100 % Ctrl
same,% Ctrl@1000 nM,[3],4.8 % Ctrl
same,% Ctrl@1000 nM,[4],100 % Ctrl
same,% Ctrl@1000 nM,[5],100 % Ctrl
same,% Ctrl@1000 nM,[6],3 % Ctrl
same,% Ctrl@1000 nM,[7],100 % Ctrl
same,% Ctrl@1000 nM,[8],100 % Ctrl
same,% Ctrl@1000 nM,[9],100 % Ctrl
same,% Ctrl@1000 nM,[10],100 % Ctrl
same,% Ctrl@1000 nM,[11],100 % Ctrl
same,% Ctrl@1000 nM,[12],75 % Ctrl
same,% Ctrl@1000 nM,[13],83 % Ctrl
same,% Ctrl@1000 nM,[14],100 % Ctrl
same,% Ctrl@1000 nM,[15],4.1 % Ctrl
same,% Ctrl@1000 nM,[16],100 % Ctrl
same,% Ctrl@1000 nM,[17],100 % Ctrl
same,% Ctrl@1000 nM,[18],20 % Ctrl
same,% Ctrl@1000 nM,[19],83 % Ctrl
same,% Ctrl@1000 nM,[20],63 % Ctrl
same,% Ctrl@1000 nM,[21],100 % Ctrl
same,% Ctrl@1000 nM,[22],100 % Ctrl
same,% Ctrl@1000 nM,[23],100 % Ctrl
same,% Ctrl@1000 nM,[24],100 % Ctrl
same,% Ctrl@1000 nM,[25],100 % Ctrl
same,% Ctrl@1000 nM,[26],82 % Ctrl
same,% Ctrl@1000 nM,[27],100 % Ctrl
same,% Ctrl@1000 nM,[28],58 % Ctrl
same,% Ctrl@1000 nM,[29],100 % Ctrl
same,% Ctrl@1000 nM,[30],1.7 % Ctrl
same,% Ctrl@1000 nM,[31],47 % Ctrl
same,% Ctrl@1000 nM,[32],96 % Ctrl
same,% Ctrl@1000 nM,[33],0.6 % Ctrl
same,% Ctrl@1000 nM,[34],19 % Ctrl

# — patent publication US8933230B2, “Phosphorus-containing group-substituted quinoline, its preparation process, medical composition containing the compounds and application” (priority 2011, dated 2015)
